Source: patent US20240245677A1, “SELECTED COMPOUNDS FOR TARGETED DEGRADATION OF BRD9” (C4 THERAPEUTICS, INC., priority 2021, published 2024)

Legend:
[1] = Monkey Hepatocyte Stability Assay; format: in vitro ADME, cynomolgus monkey; conditions: cryopreserved hepatocytes
Experimental: (§1) The metabolic stability of Compound 1 was evaluated using cryopreserved hepatocytes from mice, rats, dogs, cynomolgus monkeys, and humans.
(§2) 50 μL of 1 mM intermediate solutions for each test compound was prepared by adding 5 μL of 10 mM stock solution to 45 μL of a 1:1 mixture of water and acetonitrile. A 2 μM working stocks for each test compound were prepared in incubation media, InvitroGRO™ KHB (Bio IVT, Westbury, NY, USA), by adding 2 μL of 1 mM intermediate stock to 998 μL of incubation media.
(§3) To thaw the hepatocytes, InvitroGRO™ HT thawing medium (BioIVT, Westbury, NY, USA) was prewarmed to 37° C., and 48 mL of warmed thawing medium was transferred to a sterile 50 mL conical tube. The hepatocyte vial was removed from the liquid nitrogen Dewar, and gently thawed in a water bath at 37° C. for 1-2 minutes, then the contents of the vial were emptied into a conical tube with prewarmed InvitroGRO HT medium. 1 mL of prewarmed InvitroGRO HT medium was added to each emptied hepatocyte vial to resuspend any remaining cells, and the contents were pipetted into the hepatocyte suspension. The tube containing the hepatocyte suspension was centrifuged at 50*g for 5 minutes. The supernatant was removed carefully, and the remaining pellet was resuspended by adding 1 mL of incubation media, InvitroGRO KHB, and gently shaking until there were no clumps.
(§4) Cell viability was determined using the trypan blue method. 25 μL of hepatocyte cell suspension was added to a trypan blue (TB) solution (containing 775 μL InvitroGRO KHB and 200 μL of Trypan Blue). Cell count was taken using a hemacytometer.
(§5) For mouse hepatocytes, 200 μL of hepatocytes (0.8×10^6 cells/mL) were added to the wells of a 48 well plate (Catalog No. 92048, TPP Techno Plastic Products AG, Trasadingen, Switzerland) and pre-incubated for 30 minutes at 37° C. For rat, dog, monkey, […], 200 μL of hepatocytes (2×10^6 cells/mL) were added to the wells of a 48 well plate (Catalog No. 92048, TPP Techno Plastic Products AG, Trasadingen, Switzerland) and pre-incubated for 30 minutes at 37° C.
(§6) For all species of hepatocytes, once the pre-incubation period was complete, 200 μL of 2 μM working stock of test compound was added to the wells of the plate, and the plate was vortexed on a Vibramax™ 100 (P/N 544-21200-00, Heidolph Instruments GmbH & Co. KG, Schwabach, Germany) at 500 rpm in a 37° C. CO2 incubator (Model No. 51026280, ThermoFisher Scientific, Waltham, MA, USA). At each time point of 0, 15, 30, 60, 90, and 120 minutes, 50 μL of incubation mixture was precipitated with 200 μL of acetonitrile containing internal standard.
(§7) At the end of the experiment, the samples were centrifuged at 4000 rpm for 10 minutes. […]

[2] = test system: cryopreserved hepatocytes from cynomolgus monkeys; assay: Monkey Hepatocyte Stability Assay; format: in vitro ADME, cynomolgus monkey
Experimental: as §1, §2, §3, §4, §5, §6, §7

[3] = Crystallization by vapor diffusion; format: physicochemical
Experimental: Based on approximate solubility results, about 20 mg of Compound 1 free form Pattern E was dissolved in the minimal amount of good solvent in 2 mL glass vial without lid. Then the 2 mL lid less vial was placed to 8 mL vial. To the 8 mL vial was added anti-solvent. Then the 8 mL vial was capped and placed at ambient condition. Precipitates were collected by centrifugation filtration through a 0.45 μm nylon membrane filter at 14,000 rpm for 5 min. Solid parts (wet cakes) were investigated by XRPD.

## COc1cc(-c2cn(C)c(=O)c(C)c2C)cc(OC)c1CN1CC[C@H](N2CCN(c3ccc(N[C@H]4CCC(=O)NC4=O)cc3F)CC2)C(F)(F)C1 [Compound 1, (S)-3-((4-(4-((S)-1-(2,6-dimethoxy-4-(1,4,5-trimethyl-6-oxo-1,6-dihydropyridin-3-yl)benzyl)-3,3-difluoropiperidin-4-yl)piperazin-1-yl)-3-fluorophenyl)amino)-piperidine-2,6-dione]
[1]
  half-life at 1 µM: 44.2 min
[1]; read-out: CL int cells
  hepatocyte CLint at 1 µM: 15.7 µL/min/1e6 cells
[1]; read-out: CL int in vivo
  CLint scaled at 1 µM: 56.5 mL/min/kg
[2]
  CLhb scaled well stirred: 24.7 mL/min/kg body wt.
[3]; vapor diffusion, 1,4-Dioxane/50, anti-solvent MTBE/600
  Comments: Gum-like sample
[3]; vapor diffusion, 2-MeTHF/120, anti-solvent MTBE/1080
  Comments: Gum-like sample
[3]; vapor diffusion, THF/50, anti-solvent MTBE/600
  Comments: Gum-like sample
